The target of data set [1] is Myc-TEAD1 (Homo sapiens, UniProt P28347). Nature of the data set: Inhibition of Myc-TEAD1 palmitoylation in HEK293A cells. In kind it is cell-based. Particulars: 24 h, dose-dependent, FIG. 2C. As for the experimental part:
HEK293A cells were seeded in 6 cm dishes overnight and transfected with plasmids using PEI reagent (1 μg/μL). Briefly, PRK5-Myc-TEAD1 (33109, Addgene) and PEI were diluted in serum-free DMEM medium in two tubes (DNA: PEI ratio=1:2). After standing still for 5 mins, mix them well and stay for another 20 mins. The mixture was then added to dishes directly.
HEK293A cells with or without TEAD overexpression were pretreated with DMSO or TM2 in medium with 10% dialyzed fetal bovine serum (DFBS) for 8 h and labeled by Alkynyl Palmitic acid (1165, Click Chemistry Tools) for another 16 h. The cells were then washed and harvested by cold DPBS (14190250, Life Technologies). The cell pellets were isolated by centrifugation (500×g, 10 min) and lysed by TEA lysis buffer (50 mM TEA-HCl, pH 7.4, 150 mM NaCl, 1% Triton X-100, 0.2% SDS, 1×Protease inhibitor-EDTA free cocktail (05892791001, Roche), phosphatase inhibitor cocktail (P0044, Sigma-Aldrich)) on ice for 30 mins. The protein concentration was determined using Bio-Rad assay and adjusted to 1 mg/mL. 100 μL of protein sample mixture was treated with 10 μL of freshly prepared “click” mixture containing 1 mM TBTA, 10 mM TCEP, 10 mM CuSO4, 1 mM TBTA Biotin-Azide and incubated for 1 h at room temperature. […] The bound proteins were eluted with a buffer containing 10 mM EDTA pH 8.2 and 95% formamide and analyzed with SDS-PAGE. […]

The subject of data set [2] is Mouse hepatic progenitor organoids. Nature of the data set: Immunofluorescence staining of Ki67 in organoids. In kind it is cell-based. Particulars: 40 nM, 3D culture. The method, then: Organoids were plated in 8 well chamber slide and fixed in 4% paraformaldehyde at 4° C. for 1h. After permeabilization in 0.5% PBST, organoids were blocked with 2% BSA for 2 h and incubated with primary antibody overnight at […]. Imaging was performed on Nikon A1RHD25 confocal microscope.

The test system of data set [3] is DLD1 cells. Nature of the data set: Drug combination matrix TM2 + Trametinib, DLD1. In kind it is cell-based, Human. Particulars: 5 doses TM2 x 9 doses trametinib, day 5, Bliss, FIG. 8E. As for the experimental part: The drug combination experiments were preformed using a drug combination matrix across 5 doses of TM2 (5 μM, 3-fold dilution) and 9 doses of Trametinib (10 μM, 3-fold dilution) in different tumor cell lines. Cell viability was determined at day 5 after the drugs administration by MTT. Drug synergy score was calculated followed Bliss rule. Synergy Score and Plot was generated by “Synergyfinder” package in R language.

Data set [4] concerns the target DHODH(H) (Homo sapiens, UniProt Q02127). The experiment in a line: DHODH(H) (Table F1). Conditions: three values in one cell.
Data set [5] deals with H226. The experiment in a line: H226 growth inhibition (SAR tables). The class given is cell-based. Conditions: Homo sapiens, NCI-H226.
Data set [6] relates to HCC95. Nature of the data set: HCC95 growth inhibition (SAR tables). In kind it is cell-based.
Data set [7] in a line: Aqueous solubility (Aq Sol). The class given is physicochemical.
Data set [8] can be described thus: Metabolic stability HLM. The class given is in vitro ADME, human.
The nature of data set [9]: Metabolic stability MLM. Particulars: % parent remained per Table G2.
For data set [10], the system named is H226 cells. Nature of the data set: Cell proliferation assay (MTT), H226. Particulars: Homo sapiens, NCI-H226, 144 h, read-out: IC50 H226 cell proliferation.
Data set [11] has as its system HCT116 cells. Nature of the data set: Cell proliferation assay (MTT), HCT116. Conditions: CRC cell line, FIG. 8D.
The test system of data set [12] is NCI-H28 cells. Nature of the data set: Cell proliferation assay (MTT), NCI-H28. Conditions: Homo sapiens, NCI-H28, read-out: IC50 NCI-H28 cell proliferation.
Data set [13] addresses TEAD2 (Homo sapiens, UniProt Q15562). Nature of the data set: Inhibition of TEAD2 auto-palmitoylation in vitro. Conditions: FIG. 1; 0.05 and 0.5 μM for 30 mins.

Chain of TEAD2 (Q15562 whole entry): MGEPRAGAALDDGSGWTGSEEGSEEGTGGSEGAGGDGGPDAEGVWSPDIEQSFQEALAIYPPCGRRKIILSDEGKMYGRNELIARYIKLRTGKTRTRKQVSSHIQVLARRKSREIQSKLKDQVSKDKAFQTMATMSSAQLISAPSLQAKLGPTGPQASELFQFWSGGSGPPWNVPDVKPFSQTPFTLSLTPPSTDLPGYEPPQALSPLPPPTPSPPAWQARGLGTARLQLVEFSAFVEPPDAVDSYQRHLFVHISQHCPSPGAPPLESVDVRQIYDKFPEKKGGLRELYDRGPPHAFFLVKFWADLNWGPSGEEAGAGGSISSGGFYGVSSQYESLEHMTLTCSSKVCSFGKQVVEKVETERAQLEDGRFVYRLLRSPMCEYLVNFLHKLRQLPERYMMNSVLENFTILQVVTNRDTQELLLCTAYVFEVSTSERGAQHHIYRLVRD
Chain of DHODH(H) (Q02127 whole entry): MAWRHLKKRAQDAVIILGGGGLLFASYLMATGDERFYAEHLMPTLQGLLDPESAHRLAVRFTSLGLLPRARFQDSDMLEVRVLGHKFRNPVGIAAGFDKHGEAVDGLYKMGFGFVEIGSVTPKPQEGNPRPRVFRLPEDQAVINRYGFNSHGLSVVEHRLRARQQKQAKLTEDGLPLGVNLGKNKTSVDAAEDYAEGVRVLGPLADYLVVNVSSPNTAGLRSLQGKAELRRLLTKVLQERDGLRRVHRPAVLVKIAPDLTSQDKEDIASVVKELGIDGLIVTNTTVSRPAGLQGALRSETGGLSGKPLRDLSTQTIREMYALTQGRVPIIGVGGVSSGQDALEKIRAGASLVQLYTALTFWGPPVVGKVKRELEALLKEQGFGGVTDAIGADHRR
Chain of Myc-TEAD1 (P28347 whole entry): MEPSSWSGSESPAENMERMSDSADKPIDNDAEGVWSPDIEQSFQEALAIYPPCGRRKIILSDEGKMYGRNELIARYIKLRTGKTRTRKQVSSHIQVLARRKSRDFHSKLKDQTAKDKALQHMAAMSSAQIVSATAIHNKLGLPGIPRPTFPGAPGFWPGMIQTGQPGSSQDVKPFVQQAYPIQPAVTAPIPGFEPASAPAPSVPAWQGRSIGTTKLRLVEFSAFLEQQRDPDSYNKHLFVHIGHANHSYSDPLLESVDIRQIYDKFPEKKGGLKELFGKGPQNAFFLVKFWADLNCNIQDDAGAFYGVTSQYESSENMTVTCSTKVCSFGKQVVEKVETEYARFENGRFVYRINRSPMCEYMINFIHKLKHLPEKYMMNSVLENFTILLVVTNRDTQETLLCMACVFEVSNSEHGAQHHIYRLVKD

In the case of `O=C(Nc1ccccc1)N1CCN(C(=O)c2cccc(OCCC3CCCCC3)c2)CC1` [TM2, 4-(3-(2-cyclohexylethoxy)benzoyl)-N-phenylpiperazine-1-carboxamide], in data set [1], the “Myc-TEAD1 palmitoylation in cells (in words)” value was “dramatically suppresses”. Moreover, the “Ki67 positive cells in organoids (in words)” value in [2] was “significantly diminished”. Moreover, the “combination with MEK inhibitor trametinib, DLD1 (in words)” value in data set [3] was “strong inhibitory effects and substantial synergy”. The “DHODH(H):(GI50 μM/1,10 μM)” value in data set [4] is 5/6/15. In addition, the GI50 in data set [5] was 73 nM. Also, in data set [6] (1 μM), the “HCC95: value at 1 μM” value stood at 37. For the same compound, the “HCC95: value at 10 μM” value in data set [6] (10 μM) is 65. For the same compound, the “Aq Sol” value in data set [7] is 2.3 µM. The same compound gave a Met stab HLM, 15 min in data set [8] (15 min) of 44%. Moreover, in data set [8] (60 min), the Met stab HLM, 60 min came to 6%. The Met stab MLM, 15 min in data set [9] (15 min) amounted to 36%. Moreover, in data set [9] (60 min), the Met stab MLM, 60 min came to 4%. Further, the IC50 in data set [10] was 26 nM; in [12] it was > 5000 nM. The “inhibition of HCT116 cell proliferation (in words)” value in [11] was “did not exhibit strong inhibition”. The “inhibition of TEAD2 auto-palmitoylation (in words)” value in [13] is “most potent compound”.
